# “And” between values parts separate entries of the source, which are not always exact repeats. Identical values can stand only once. Like-named read-outs stand apart in the source and are kept apart here.
# Experiments:
# [1] = tested on: NF-κB activation in HEK293T pGF NF-κB cells; assay: TNF-α induced NF-κB activation assay; format: cell-based; conditions: for EC50: Homo sapiens, HEK-293T
# Procedure, shortened: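 HEK293T cells carrying NF-κB response element–GFP/luciferase reporter, in DMEM FluoroBrite with 1% dialyzed FBS, stimulated with 10 ng/mL TNF-α alongside compound (8-point 1:2 dose-response, 0.3% DMSO) for 24 h at 37 °C. GFP fluorescence (ex485/em535) gave % inhibition and IC50. Parallel CellTiterGlo viability (11-point, 1:3) with TNF-α gave EC50.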
# [2] = Thermodynamic solubility; format: physicochemical; conditions: thermodynamic from solid; single replicate
# [3] = Metabolic stability in human liver microsomes; format: in vitro ADME; conditions: pH 7.4, intrinsic clearance
# Protocol: Human liver microsomes were purchased from BioIVT. Metabolic stability was determined in 0.5 mg/mL human liver microsomes at a compound concentration of 1 µM in 100 mM KPO4 buffer pH 7.4 in a total incubation volume of 500 µL. The reaction was initiated by the addition of 1 mM NADPH. At various incubation times, i.e., at 0, 5, 10, 20, 40, and 60 min, a sample was withdrawn from the incubation and the reaction was terminated by the addition of cold acetonitrile with warfarin as an internal standard. The amount of parent compound remaining was analyzed by liquid chromatography coupled to triple quadrupole mass spectrometry (LC-MS/MS).
# [4] = tested on: A2780 cells; assay: Cancer cell viability assay (resazurin), A2780; format: cell-based; conditions: two independent experiments
# Protocol: (§1) Three different cancer cell lines A2780 (ovarian cancer, ECACC 93112519), A549 (lung cancer, ATCC 60150896) and HCT116 (colon cancer, ATCC CCL-247), and one immortalized fibroblast cell line (BJhTERT) as control, were seeded in black/clear 384-well plates (Corning #3764), 50 µL/well, containing 11 concentrations, nano-dispensed, dose-response curves of the test compounds. A2780, HCT116, and HEK293T cell lines were authenticated with STR profiling, frozen down, and these stocks were used in experiments. The A2780 cells were cultured in RPMI 1640, the A549 and BJhTERT cells in DMEM, and the HCT116 cells in McCoys 5 A medium. All media were supplemented with 10% FBS and 1% P/S. All cell culture media, additives, and reagents were purchased from Thermo Fisher Scientific. The cell plates were incubated 72 hours in a humidified incubator at 37 °C with 5% CO2, after which resazurin (Sigma-Aldrich), 10 µL/well, was added to a final concentration of 10 µg/mL. The plates were incubated for 6 hours with resazurin followed by fluorescence readings in a Sense plate reader (Hidex), resorufin protocol (ex 544 nm/em 595 nm). The cell viability was calculated compared to untreated control wells and the EC50 values were determined in XLfit (IDBS).
# [5] = molecular target: human OGG1 enzyme (Homo sapiens, UniProt O15527); assay: OGG1 glycosylase activity assay (enzyme inhibition, APE1-coupled fluorescence); format: biochemical
# Sequence of human OGG1 enzyme (O15527 whole entry): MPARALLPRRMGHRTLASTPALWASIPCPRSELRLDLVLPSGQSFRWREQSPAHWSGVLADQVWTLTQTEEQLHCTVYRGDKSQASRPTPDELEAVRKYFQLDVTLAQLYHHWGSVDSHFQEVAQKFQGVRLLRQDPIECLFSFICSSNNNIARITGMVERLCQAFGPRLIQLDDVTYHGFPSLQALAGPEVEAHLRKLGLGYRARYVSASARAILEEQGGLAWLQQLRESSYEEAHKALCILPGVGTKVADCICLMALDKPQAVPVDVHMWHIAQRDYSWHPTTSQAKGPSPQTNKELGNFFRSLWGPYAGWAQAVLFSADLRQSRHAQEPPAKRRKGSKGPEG
# Protocol: “8” signifies 8-oxoA and “FAM” and “Dab” signify fluorescein and dabcyl (TriLink Biotech). Briefly, compounds dissolved in DMSO were dispensed using an Echo 550 (Labcyte), followed by transfer of enzyme and substrate solutions manually with a 16-channel pipette or with a Multidrop (Thermo Scientific). The plates were centrifuged, sealed and incubated at room temperature overnight (15 h) and read the following morning in an Hidex Sense plate reader (Hidex Oy) using a 485-nm filter with a bandwidth of 10 nm for excitation and a 535-nm filter with a bandwidth of 20 nm for emission.
# [6] = tested on: HCT116 cells; assay: Cancer cell viability assay (resazurin), HCT116; format: cell-based; conditions: HCT116, 100 μM, two independent experiments; 100 µM
# Protocol: as §1
# [7] = Plasma protein binding in human plasma (RED); format: in vitro ADME; conditions: plasma (50% plasma, 50% isotonic buffer), pH 7.4, read-out: Protein plasma binding, fu (%)
# Protocol: Pooled human plasma was provided by Uppsala Academic Hospital and was collected from two donors (non-smoking) (citric acid). In brief, 0.2 mL of the plasma (50% plasma, 50% isotonic buffer) test solution (typically 10 µM final compound concentration) was transferred to the membrane tube in the RED insert (ThermoFisher Scientific). 0.35 ml isotonic phosphate buffer pH 7.4 was added to the other side of the membrane. The 96-well base plate was then sealed with an adhesive plastic film (Scotch Pad) to prevent evaporation. The sample was incubated with rapid rotation (>>900 rpm) on a Kisker rotational incubator at 37 °C for 4 h to achieve equilibrium. Prior to LC-MS/MS analysis the plasma and buffer samples were treated with the addition of Methanol (1:3) containing Warfarin as an internal standard to precipitate proteins. The standard curve was created using the plasma standard. The plate was then sealed, and centrifuged and the supernatant was analyzed by liquid chromatography coupled to triple quadrupole mass spectrometry (LC-MS/MS).
smiles,measurement,setting,value
Cc1nc(-c2cc(F)c(CC(=O)Nc3noc4c3CCCC4)c(F)c2)c(C)[nH]1 [compound 23],% inhibition of NF-κB activation (Figure3F),"[1]; Concentration 2.34e-7, single replicates",12.9% and 24.6% and 2.1%
same,% inhibition of NF-κB activation (Figure3F),"[1]; Concentration 4.69e-7, single replicates",11.9% and 16.7% and -7.9%
same,% inhibition of NF-κB activation (Figure3F),"[1]; Concentration 9.38e-7, single replicates",11% and 6.8% and -9.9%
same,% inhibition of NF-κB activation (Figure3F),"[1]; Concentration 1.88e-6, single replicates",11.1% and 26.6% and 2.8%
same,% inhibition of NF-κB activation (Figure3F),"[1]; Concentration 3.75e-6, single replicates",21.4% and 46% and -1.3%
same,% inhibition of NF-κB activation (Figure3F),"[1]; Concentration 7.5e-6, single replicates",38.5% and 60.8% and 40%
same,% inhibition of NF-κB activation (Figure3F),"[1]; Concentration 1.5e-5, single replicates",56.3% and 70.5% and 50.3%
same,% inhibition of NF-κB activation (Figure3F),"[1]; Concentration 3e-5, single replicates",64.4% and 84.7% and 71.9%
same,EC50,"[1]; NFκB activation assay, ± SD, read-out: pEC50 (converted)",6310 nM
same,EC50,"[1]; inhibition of TNF-α-induced NF-κB activation, read-out: EC50",6300 nM
same,solubility thermodynamic,[2],16 µM
same,microsomal CLint at 1 µM,[3],39.7 µL/min/mg
same,percentage cell viability,"[4]; A2780, 100 μM, 100 µM",42.92%
same,viability at 100 µM,"[4]; Homo sapiens, A2780, A2780, 100 μM, read-out: percentage cell viability",33.8%
same,"OGG1 inhibition, dose-response (Figure2C)",[5]; Concentration (M) 1.93e-7,9.69 and 17.93 and 10.41 and 18.5
same,"OGG1 inhibition, dose-response (Figure2C)",[5]; Concentration (M) 3.87e-7,29.24 and 27.63 and 28.59 and 28.11
same,"OGG1 inhibition, dose-response (Figure2C)",[5]; Concentration (M) 7.73e-7,53.6 and 49.32 and 48.44 and 47.84
same,"OGG1 inhibition, dose-response (Figure2C)",[5]; Concentration (M) 1.55e-6,59.42 and 67.01 and 59.08 and 66.62
same,"OGG1 inhibition, dose-response (Figure2C)",[5]; Concentration (M) 3.09e-6,78.97 and 77.03 and 76.1 and 78.52
same,"OGG1 inhibition, dose-response (Figure2C)",[5]; Concentration (M) 6.19e-6,89 and 85.95 and 85.06 and 85.7
same,"OGG1 inhibition, dose-response (Figure2C)",[5]; Concentration (M) 1.24e-5,91.41 and 94.39 and 90.13 and 92.43
same,"OGG1 inhibition, dose-response (Figure2C)",[5]; Concentration (M) 2.48e-5,94.22 and 97.46 and 92.46 and 96.53
same,"OGG1 inhibition, dose-response (Figure2C)",[5]; Concentration (M) 4.95e-5,94.91 and 98.52 and 101.44 and 105.23
same,"OGG1 inhibition, dose-response (Figure2C)",[5]; Concentration (M) 9.9e-5,93.34 and 96.5 and 102.87 and 104.38
same,IC50,"[5]; Figure 3B source data, three independent experiments, read-out: IC50 OGG1",442 nM and 646 nM and 620 nM
same,increase of inhibitory potency compared to fragment 1,[5]; ratio of IC50 values,> 165 fold
same,IC50,[5]; read-out: IC50,600 nM
same,percentage cell viability,[6],61.96% and 97.34%
same,"fraction unbound at 4 h, 10 µM",[7],0.048

# From article PMC11836371, “Virtual fragment screening for DNA repair inhibitors in vast chemical space” (Nature Communications, 2025)
